According to the NIST ThermoML archive (doi:10.1021/je100967k):
Numbers after ± are expanded uncertainties.

What was measured:
[1] = xn = mol fraction of the nth substance listed; conditions: 101 kPa, Liquid; for speed of sound: Pulse-echo method
[2] = refractive index (Na D-line) (dimensionless); xn = mol fraction of the nth substance listed; conditions: 101 kPa, Liquid, Standard Abbe refractometry

CN1CCCC1=O [N-methylpyrrolidone] + CCO
Conditions	mass density, [1] [kg/m3]	refractive index, [2]	speed of sound, [1] [m/s]	viscosity, [1] [mPa·s]
293.15 K, x1 = 0.0992	829.76 ± 0.77	1.3797 ± 0.0005	1226.1 ± 1.1	1.139 ± 0.018
293.15 K, x1 = 0.1985	864.84 ± 0.69	1.3953 ± 0.0005	1284.2 ± 1.1	1.173 ± 0.019
293.15 K, x1 = 0.2973	894.36 ± 0.64	1.4089 ± 0.0005	1331.7 ± 1.2	1.218 ± 0.02
293.15 K, x1 = 0.3963	920.89 ± 0.59	1.4209 ± 0.0005	1375.7 ± 1.2	1.275 ± 0.021
293.15 K, x1 = 0.4948	944.41 ± 0.56	1.4313 ± 0.0005	1414.8 ± 1.2	1.354 ± 0.022
293.15 K, x1 = 0.5932	965 ± 0.53	1.4406 ± 0.0005	1448.9 ± 1.2	1.436 ± 0.023
293.15 K, x1 = 0.6912	983.96 ± 0.51	1.449 ± 0.0005	1480.7 ± 1.3	1.524 ± 0.025
293.15 K, x1 = 0.7897	1000.86 ± 0.49	1.4563 ± 0.0005	1509.4 ± 1.3	1.626 ± 0.026
293.15 K, x1 = 0.8875	1016.79 ± 0.53	1.4633 ± 0.0005	1537 ± 1.3	1.726 ± 0.028
293.15 K, x1 = 1	1032.87 ± 0.55	1.4706 ± 0.0006	1565.3 ± 1.4	1.858 ± 0.03
303.15 K, x1 = 0.0992	820.98 ± 0.78	1.376 ± 0.0006	1191.3 ± 1.1	0.9625 ± 0.016
303.15 K, x1 = 0.1985	855.96 ± 0.71	1.3916 ± 0.0005	1248.9 ± 1.1	0.986 ± 0.016
303.15 K, x1 = 0.2973	885.42 ± 0.65	1.4051 ± 0.0005	1295.9 ± 1.1	1.033 ± 0.017
303.15 K, x1 = 0.3963	911.91 ± 0.61	1.4168 ± 0.0005	1338.9 ± 1.2	1.09 ± 0.018
303.15 K, x1 = 0.4948	935.43 ± 0.57	1.4273 ± 0.0005	1377.6 ± 1.2	1.15 ± 0.019
303.15 K, x1 = 0.5932	955.97 ± 0.54	1.4366 ± 0.0005	1411.4 ± 1.2	1.22 ± 0.02
303.15 K, x1 = 0.6912	974.94 ± 0.52	1.4449 ± 0.0005	1442.9 ± 1.3	1.292 ± 0.021
303.15 K, x1 = 0.7897	991.85 ± 0.5	1.4523 ± 0.0005	1471.4 ± 1.3	1.371 ± 0.022
303.15 K, x1 = 0.8875	1007.8 ± 0.51	1.4593 ± 0.0006	1498.5 ± 1.3	1.45 ± 0.024
303.15 K, x1 = 1	1023.95 ± 0.53	1.4664 ± 0.0006	1526.5 ± 1.3	1.553 ± 0.025
313.15 K, x1 = 0.0992	812.09 ± 0.79	1.3717 ± 0.0006	1157 ± 1.1	0.803 ± 0.014
313.15 K, x1 = 0.1985	846.98 ± 0.72	1.3872 ± 0.0005	1214.7 ± 1.1	0.8276 ± 0.014
313.15 K, x1 = 0.2973	876.39 ± 0.66	1.4011 ± 0.0005	1260.3 ± 1.1	0.867 ± 0.015
313.15 K, x1 = 0.3963	902.87 ± 0.62	1.4127 ± 0.0005	1302.5 ± 1.2	0.9234 ± 0.015
313.15 K, x1 = 0.4948	926.39 ± 0.58	1.4234 ± 0.0005	1341 ± 1.2	0.98 ± 0.016
313.15 K, x1 = 0.5932	946.9 ± 0.55	1.4329 ± 0.0005	1374.2 ± 1.2	1.039 ± 0.017
313.15 K, x1 = 0.6912	965.89 ± 0.53	1.4411 ± 0.0005	1405.3 ± 1.2	1.109 ± 0.018
313.15 K, x1 = 0.7897	982.82 ± 0.51	1.4484 ± 0.0005	1433.5 ± 1.3	1.173 ± 0.019
313.15 K, x1 = 0.8875	998.8 ± 0.5	1.4552 ± 0.0006	1460.3 ± 1.3	1.237 ± 0.02
313.15 K, x1 = 1	1015.03 ± 0.52	1.4621 ± 0.0006	1487.8 ± 1.3	1.324 ± 0.022
323.15 K, x1 = 0.0992	803.05 ± 0.81	1.3677 ± 0.0006	1122.7 ± 1.1	0.657 ± 0.012
323.15 K, x1 = 0.1985	837.87 ± 0.73	1.3837 ± 0.0006	1179.6 ± 1.1	0.691 ± 0.012
323.15 K, x1 = 0.2973	867.27 ± 0.68	1.3974 ± 0.0006	1224.9 ± 1.1	0.731 ± 0.013
323.15 K, x1 = 0.3963	893.76 ± 0.63	1.4089 ± 0.0005	1266.6 ± 1.2	0.782 ± 0.013
323.15 K, x1 = 0.4948	917.3 ± 0.59	1.4195 ± 0.0006	1304.6 ± 1.2	0.833 ± 0.014
323.15 K, x1 = 0.5932	937.79 ± 0.57	1.4289 ± 0.0006	1337.3 ± 1.2	0.895 ± 0.015
323.15 K, x1 = 0.6912	956.8 ± 0.54	1.4372 ± 0.0006	1368.3 ± 1.2	0.952 ± 0.016
323.15 K, x1 = 0.7897	973.77 ± 0.53	1.4443 ± 0.0006	1396.1 ± 1.3	1.011 ± 0.017
323.15 K, x1 = 0.8875	989.78 ± 0.51	1.4512 ± 0.0006	1422.8 ± 1.3	1.071 ± 0.018
323.15 K, x1 = 1	1006.1 ± 0.5	1.4576 ± 0.0006	1450.2 ± 1.3	1.146 ± 0.019
